Source: patent US20230330093A1, “APPLICATION OF NITROGEN-CONTAINING SATURATED HETEROCYCLIC COMPOUND” (SHANGHAI PHARMACEUTICALS HOLDING CO., LTD., priority 2020, published 2023)

Test system: cynomolgus monkeys
Assay: 4-week safety study: routine ECG analysis
Format: in vivo
Protocol: Routine ECG analysis was performed at each scheduled time (day 1 after administration, d01 and d02 after administration, 1 and 24 h after administration on day 1, before administration, and 1 and 24 h after administration on day 26 and day 56). P-wave, R-wave, T-wave, P-R intervals, Q-T intervals, QRS duration and heart rate were recorded by an ECG system using derivation DII (ECG-6951E, Shanghai, China).

SMILES: COC(=O)NCCCn1nc([C@@H](C)N(C(=O)[C@H]2CNCCO2)C2CC2)c2ccc(C)nc21 [compound of Formula I]
- HR (Female, 20 mg/kg, 1 h (d 1)): 230.1 ± 20.5 bmp
- QRS (Female, 20 mg/kg, 1 h (d 1)): 38.0 ± 4.5 ms
- QT (Female, 20 mg/kg, 1 h (d 1)): 160.0 ± 7.1 ms
- QTc (Female, 20 mg/kg, 1 h (d 1)): 250.2 ± 10.4 ms
- HR (Female, 20 mg/kg, 1 h (d 26)): 262.8 ± 13.5 bmp
- QRS (Female, 20 mg/kg, 1 h (d 26)): 36.0 ± 5.5 ms
- QT (Female, 20 mg/kg, 1 h (d 26)): 140.0 ± 7.1 ms
- QTc (Female, 20 mg/kg, 1 h (d 26)): 228.9 ± 8.0 ms
- HR (Female, 20 mg/kg, 24 h (d 1)): 209.8 ± 9.3 bmp
- QRS (Female, 20 mg/kg, 24 h (d 1)): 34.0 ± 8.9 ms
- QT (Female, 20 mg/kg, 24 h (d 1)): 158.0 ± 4.5 ms
- QTc (Female, 20 mg/kg, 24 h (d 1)): 239.7 ± 5.4 ms
- HR (Female, 20 mg/kg, 24 h (d 26)): 245.4 ± 43.9 bmp
- QRS (Female, 20 mg/kg, 24 h (d 26)): 36.0 ± 5.5 ms
- QT (Female, 20 mg/kg, 24 h (d 26)): 150.0 ± 10.0 ms
- QTc (Female, 20 mg/kg, 24 h (d 26)): 238.6 ± 14.1 ms
- HR (Female, 20 mg/kg, d0): 185.7 ± 48.0 bmp
- QRS (Female, 20 mg/kg, d0): 34.0 ± 5.5 ms
- QT (Female, 20 mg/kg, d0): 170.0 ± 20.0 ms
- QTc (Female, 20 mg/kg, d0): 244.6 ± 14.3 ms
- HR (Female, 20 mg/kg, d 56): 238.0 ± 29.2 bmp
- QRS (Female, 20 mg/kg, d 56): 40.0 ± 0.0 ms
- QT (Female, 20 mg/kg, d 56): 160.0 ± 0.0 ms
- QTc (Female, 20 mg/kg, d 56): 253.1 ± 10.4 ms
- HR (Female, 100 mg/kg, 1 h (d 1)): 228.5 ± 12.8 bmp
- QRS (Female, 100 mg/kg, 1 h (d 1)): 36.0 ± 5.5 ms
- QT (Female, 100 mg/kg, 1 h (d 1)): 160.0 ± 7.1 ms
- QTc (Female, 100 mg/kg, 1 h (d 1)): 249.6 ± 6.7 ms
- HR (Female, 100 mg/kg, 1 h (d 26)): 246.4 ± 40.7 bmp
- QRS (Female, 100 mg/kg, 1 h (d 26)): 38.0 ± 4.5 ms
- QT (Female, 100 mg/kg, 1 h (d 26)): 170.0 ± 10.0 ms
- QTc (Female, 100 mg/kg, 1 h (d 26)): 271.1 ± 17.2 ms
- HR (Female, 100 mg/kg, 24 h (d 1)): 217.6 ± 22.7 bmp
- QRS (Female, 100 mg/kg, 24 h (d 1)): 34.0 ± 5.5 ms
- QT (Female, 100 mg/kg, 24 h (d 1)): 162.0 ± 11.0 ms
- QTc (Female, 100 mg/kg, 24 h (d 1)): 248.2 ± 7.7 ms
- HR (Female, 100 mg/kg, 24 h (d 26)): 256.1 ± 17.1 bmp
- QRS (Female, 100 mg/kg, 24 h (d 26)): 38.0 ± 4.5 ms
- QT (Female, 100 mg/kg, 24 h (d 26)): 148.0 ± 8.4 ms
- QTc (Female, 100 mg/kg, 24 h (d 26)): 239.8 ± 10.5 ms
- HR (Female, 100 mg/kg, d0): 182.3 ± 28.9 bmp
- QRS (Female, 100 mg/kg, d0): 32.0 ± 4.5 ms
- QT (Female, 100 mg/kg, d0): 170.0 ± 12.2 ms
- QTc (Female, 100 mg/kg, d0): 245.0 ± 9.2 ms
- HR (Female, 100 mg/kg, d 56): 230.8 ± 5.0 bmp
- QRS (Female, 100 mg/kg, d 56): 30.0 ± 0.0 ms
- QT (Female, 100 mg/kg, d 56): 160.0 ± 0.0 ms
- QTc (Female, 100 mg/kg, d 56): 250.7 ± 1.8 ms
- HR (Female, 450 mg/kg, 1 h (d 1)): 211.3 ± 20.5 bmp
- QRS (Female, 450 mg/kg, 1 h (d 1)): 50.0 ± 14.1 ms
- QT (Female, 450 mg/kg, 1 h (d 1)): 175.0 ± 17.3 ms
- QTc (Female, 450 mg/kg, 1 h (d 1)): 265.5 ± 19.9 ms
- HR (Female, 450 mg/kg, 1 h (d 26)): 262.7 ± 15.4 bmp
- QRS (Female, 450 mg/kg, 1 h (d 26)): 40.0 ± 0.2 ms
- QT (Female, 450 mg/kg, 1 h (d 26)): 140.0 ± 8.2 ms
- QTc (Female, 450 mg/kg, 1 h (d 26)): 229.0 ± 14.6 ms
- HR (Female, 450 mg/kg, 24 h (d 1)): 211.3 ± 2.4 bmp
- QRS (Female, 450 mg/kg, 24 h (d 1)): 35.0 ± 5.8 ms
- QT (Female, 450 mg/kg, 24 h (d 1)): 162.5 ± 9.6 ms
- QTc (Female, 450 mg/kg, 24 h (d 1)): 247.2 ± 13.8 ms
- HR (Female, 450 mg/kg, 24 h (d 26)): 257.8 ± 9.0 bmp
- QRS (Female, 450 mg/kg, 24 h (d 26)): 32.5 ± 5.0 ms
- QT (Female, 450 mg/kg, 24 h (d 26)): 152.5 ± 9.6 ms
- QTc (Female, 450 mg/kg, 24 h (d 26)): 247.8 ± 14.4 ms
- HR (Female, 450 mg/kg, d0): 174.1 ± 28.8 bmp
- QRS (Female, 450 mg/kg, d0): 32.0 ± 4.5 ms
- QT (Female, 450 mg/kg, d0): 168.0 ± 16.4 ms
- QTc (Female, 450 mg/kg, d0): 238.1 ± 12.7 ms
- HR (Female, 450 mg/kg, d 56): 207.4 ± 28.1 bmp
- QRS (Female, 450 mg/kg, d 56): 25.0 ± 7.1 ms
- QT (Female, 450 mg/kg, d 56): 170.0 ± 14.1 ms
- QTc (Female, 450 mg/kg, d 56): 256.3 ± 9.7 ms
- HR (Male, 20 mg/kg, 1 h (d 1)): 216.0 ± 27.0 bmp
- QRS (Male, 20 mg/kg, 1 h (d 1)): 32.0 ± 4.5 ms
